The values that follow come from patent US11110070B2 (priority 2015, dated 2021).

The conditions of series [1]: in rodents; cited from earlier work.
Series [2] has as its system 129S6/SvEvTac mice. The experiment in a line: Open field (OF) after reinstatement. The class given is in vivo. On the procedure:
OF protocol was administered as previously described (Richardson-Jones et al., 2010).

The test system of another series is military patients. The conditions noted are these: McGhee et al., cited from earlier work.
The test system of series [3] is 129S6/SvEvTac mice. Briefly: 1-shock contextual fear conditioning (CFC) in SD experiments. The class given is in vivo. To be noted: ketamine after SD. As to the method: The 1-shock CFC procedure was performed as previously published (A15). Briefly, mice were placed into context A and administered a 2-s shock (0.75 mA) 180 s later. Mice were removed from the context 15 s following the termination of shock (at 197 s). For context retrieval, mice were placed back into context A for 180 s. For alternate contexts, mice were placed into the contexts for 180 s.

For series [4], the system named is hypothalamic-pituitary-adrenal (HPA) axis. Briefly: Corticosterone enzyme immunoassay after a brief stressor (SD model). To be noted: SD mice; ketamine 10, 30 or 90 mg kg^−1 before SD; vs Ctrl-Sal. The class given is in vivo. As to the method: Mice were exposed to a minor stressor for 10 min and then returned to their home cages. Blood was collected from awake mice 70 min after the start of the stressor from the retro-orbital sinus using hematocrit tubes. Blood was then transferred to Eppendorf tubes pre-coated with 5 μl 0.5 M EDTA, placed on ice, and immediately spun down to obtain plasma for subsequent EIA. Plasma was stored at −80° C. until analysis. EIA was performed using a DetectX Corticosterone EIA Kit (#K014-H1, Arbor Assays).

For the next series, the system named is animals. The conditions noted are these: in vivo, ip; cited from earlier work.
Another series has as its system 129S6/SvEv mice. The experiment in a line: FST after prophylactic ketamine or ketamine metabolites (FIG. 15). The class given is in vivo. To be noted: prophylactic K-injected vs Sal-injected mice.
For series [5], the system named is 129S6/SvEvTac mice. The experiment in a line: Elevated plus maze (EPM) in SD experiments. The class given is in vivo. The conditions noted are these: ketamine 30 mg kg^−1 before SD; Ctrl and SD groups. As to the method:
Testing was performed as previously described (A14). Briefly, the maze is a plus-cross-shaped apparatus consisting of four arms, two open and two enclosed by walls, linked by a central platform at a height of 50 cm from the floor. Mice were individually placed in the center of the maze facing an open arm and were allowed to explore the maze for 5 min. The time spent in and the number of entries into the open arms was used as an anxiety index. For the 12956/SvEv experiments, videos were scored using behavioral tracking software (TopScan, CleverSys, Reston, Va.). For the C57BL/6Ntac experiments, all parameters were measured using a videotracker (EPM3C. Bioseb, Vitrolles, France).

The test system of series [6] is 129S6/SvEvTac mice. Briefly: Social interaction with a novel mouse after SD. The class given is in vivo. To be noted: ketamine 30 mg kg^−1 before SD. On the procedure:
Mice were placed into a large open field containing 2 upside-down wire mesh pencil cups. One pencil cup served as a novel object or empty container. The other pencil cup contained a novel 129S6/SvEv male mouse. Mice were placed in the middle of the open field arena and allowed to explore for 10 min. Sessions were videotaped and the first 5 min were later analyzed using behavioral tracking software (TopScan, CleverSys, Reston, Va.).

A further series deals with C57BL/6NTac mice. Briefly: Sucrose splash test (ST) in CORT model. The class given is in vivo. The conditions noted are these: ketamine 90 mg kg^−1 or fluoxetine, before CORT. On the procedure: Experiment 5 (Pre-ketamine and pre-fluoxetine corticosterone (CORT)): C57BL16NTac mice were injected with ketamine (10, 30, 90 mg kg^−1, i.p.) 1 week before the start of CORT, or administered fluoxetine (18 mg kg^−1 per day) in the drinking water for 3 weeks before the start of CORT. Ketamine was purchased from Merial (100 mg/ml stock solution). Fluoxetine hydrochloride (160 μg/mL, equivalent to 18 mg kg^−1 per day in the drinking water) was purchased from Anawa Trading (Zurich, Switzerland) and dissolved in 0.45% hydroxypropyl-β-cyclodextrin (β-CD) (Sigma-Aldrich, Saint-Quentin Fallavier, France) solution. Following ketamine or fluoxetine treatment, CORT was administered for 3 weeks in the drinking water. CORT (4-pregnen-11b-DIOL-3 20-DIONE 21-hemisuccinate) (35 μg/ml) from. Sigma Aldrich (Saint-Quentin Fallavier, France) was dissolved in vehicle (0.45% β-CD). Control animals received vehicle (0.45% β-CD) throughout the duration of the experiment.
This test consisted of squirting 200 μl of a 10% sucrose solution on the mouse's snout. The grooming duration was quantified using Stopwatch+ (Center for Behavioral Neuroscience, Georgia State University).

The next series deals with C57BL/6J strain. To be noted: cited from earlier work.
The subject of series [7] is 129S6/SvEvTac mice. The experiment in a line: Dominant interaction test after SD. The class given is in vivo. As to the method: Adult aggressor CD-1 male mice were single-housed in Macrolon® polycarbonate resin cages (15.25 in×7.8 in×9.5 in) (Animal Care Systems, Inc., Centennial, Colo.). Male 129S6/SvEvTac mice (9 weeks of age) were subsequently placed into the resident. CD-1 mouse's cage. Three antagonistic encounters were allowed between the CD-1 mouse and the intruder. Each of these encounters typically lasted less than 5 min. Following the encounters, mice were separated by a polished stainless steel cage divider (Animal Care Systems, Inc., Centennial, Colo., P/N C79171), which allowed for olfactory and auditory communication, but limited visual or tactile contact. The partition was removed daily for 2 weeks and 3 antagonistic encounters were allowed between the mice each day. This procedure consistently yielded a submissive phenotype in the experimental intruder mice. Control (Ctrl) mice were group housed 4 to 5 per cage in Macrolon® polycarbonate resin cages without dividers.
Dominant interaction was performed as previously described (A12). Briefly, mice were placed into a large open field containing 2 upside-down wire mesh pencil cups. One pencil cup served as a novel object or empty container. The other pencil cup contained the CD-1 aggressor mouse. Mice were placed in the middle of the open field arena and allowed to explore for 10 min. Sessions were videotaped and the first 5 min were later analyzed using behavioral tracking software (TopScan, CleverSys, Reston, Va.).

Where [8] appears, read: 20 mg kg^−1 following the final SD session.
Setting [9] is: SD mice, ketamine 30 mg kg^−1 before SD, vs SD-Sal.

“Also recorded” adds a separate entry of the source. Like-named read-outs stand apart in the source and are kept apart here.

`CNC1(c2ccccc2Cl)CCCCC1=O` (racemic) [ketamine, (RS)-2-(2-chlorophenyl)-2-(methylamino)cyclohexanone]: the half-life entry in series [1] is reported as “only a few hours”. Further, the “number of rearing bouts in the OF” value is reported as “higher number of rearing bouts; also recorded: increased number of rearing bouts” in the series on 129S6/SvEvTac mice [2] (ketamine 1 week prior to 1-shock reinstatement, vs saline) and “comparable number of rearing bouts” with 129S6/SvEvTac mice [2] (ketamine 1 week prior to 3-shock reinstatement). Besides, the “prevalence of PTSD” value in the series with military patients (ketamine during an operation for burns vs no ketamine, 2008) is “decreased”. Moreover, the “incidence rate of PTSD” value in the series on military patients (with and without intraoperative ketamine, 2014) is given as “comparable incidence rate of PTSD”. Also, the “CFC learning (freezing)” value with 129S6/SvEvTac mice [3] is “did not impact CFC learning; also recorded: comparable levels of freezing”. In series [4], the “levels of CORT following a brief stressor” value is given as “did not differ from Ctrl-Sal mice”. For the same molecule, in the series with animals, the “reaction time to the hot plate test” value is listed as “increased reaction time to the hot plate test”. The “immobility in day 2 of the FST” value with 129S6/SvEv mice is “significantly less immobility”. Besides, the “time in the closed arms of EPM” value in the series on 129S6/SvEvTac mice [5] was “no significant effect of ketamine in either group”. For the same molecule, the “social interaction with a novel mouse” value in the series with 129S6/SvEvTac mice [6] is on record as “did not find an effect”. Also, in the series with C57BL/6NTac mice, the “latency to groom in the ST (chronic CORT-induced depressive-like phenotype)” value was “prevented the chronic CORT-induced depressive-like phenotype; also recorded: decreased the latency to groom”. Also, the social avoidance entry in the series with C57BL/6J strain (20 mg kg^−1 administered before SD) is on record as “did not attenuate social avoidance”; in the series with C57BL/6J strain (setting [8]), “attenuated social avoidance”. In the series with C57BL/6J strain (setting [8]), the anhedonia entry was “not anhedonia”. The “time investigating the empty enclosure quadrant” value in the series on 129S6/SvEvTac mice [7] (Ctrl mice, ketamine 30 mg kg^−1 vs saline) is “equivalent amount of time investigating the empty enclosure quadrant”; with 129S6/SvEvTac mice [7] (setting [9]), “significantly less time investigating the empty enclosure quadrant”. Also, the “interaction with the CD-1 aggressor mouse” value in the series on 129S6/SvEvTac mice [7] (setting [9]) was “significantly increased willingness to interact with the CD-1; also recorded: considerably more time investigating a CD-1 mouse”.
